In patent publication US12138336B2, “Personal care composition comprising water insoluble solid organic compound” (The Procter & Gamble Company, priority 2018, dated 2024):
In brackets after ≈: the same amount, converted by molar mass. Like-named read-outs stand apart in the source and are kept apart here. Values belong to the molecule of their own block, whether it stands above or below them.

What was measured:
[1] = known property; cited from earlier work
[2] = Water solubility at 25° C.; format: physicochemical; settings: for solubility: water, 25 °C
[3] = Crystals of the solid organic compound present in the composition at 25° C. or not; format: physicochemical; settings: added dissolved in ethanol/water mixture; cationic surfactant and high melting point fatty compounds; especially at higher amount
[4] = Di-electric constant, BI-870 Liquid Dielectric Constant Meter; format: physicochemical; settings: third liquid compounds; room temperature (23.1-23.4° C.)
Method: Dielectric constant is measured at room temperature (23.1 ˜23.4° C.) using BI-870 Liquid Dielectric Constant Meter (Brookhaven Instruments, Corp., New York).

[5] = solid organic compounds, 25° C.
[6] = third liquid compounds, read-out: Solubility in H2O
[7] = first liquid oily compounds, read-out: Solubility in H2O

- Water Solubility [2, 5]: 30 µg/mL
- Crystal formation in aqueous hair conditioning compositions [3]: forms crystals
SMILES: Cc1cc(CC(C)CC(C)(C)C)n(O)c(=O)c1.NCCO (stereo not shown) [Piroctone Olamine]
- Solubility in water, in words [1]: very limited solubility in water

- solubility [2, 6]: 26000 µg/mL (≈ 188000 µM)
SMILES: OCCOc1ccccc1 [Phenoxyethanol]

- Solubility in H2O ([2]; first liquid oily compounds): Negligible (lower than 0.1) g/L
SMILES: C=CC(C)CCCC(C)(C)O (stereo not shown) [Dihydro Myrcenol]

- Water Solubility [2, 5]: 1410 µg/mL
SMILES: Cc1cc(C2CCCCC2)n(O)c(=O)c1 [Ciclopirox, reference compound]

- solubility ([2]; solid organic compounds, 25° C., read-out: Water Solubility): 240 µg/mL (≈ 1010 µM)
SMILES: Cc1cc(CC(C)CC(C)(C)C)n(O)c(=O)c1 (stereo not shown) [Piroctone, reference compound]

- solubility [2, 7]: 2.75 µg/mL (≈ 12.7 µM)
SMILES: CCCCCCC(C=O)=Cc1ccccc1 [Hexyl Cinnamic Aldehyde]

- Water Solubility [2, 5]: 4450 µg/mL
SMILES: Cc1cc(C2CCCCC2)n(O)c(=O)c1 [Ciclopirox Olamine, reference compound]

- solubility [2, 6]: 43000 µg/mL (≈ 398000 µM)
- Di-electric constant [4]: 13.69
SMILES: OCc1ccccc1 [Benzyl Alcohol]

- solubility [2, 7]: 91.7 µg/mL (≈ 405 µM)
SMILES: CCCCCC1C(=O)CCC1CC(=O)OC (stereo not shown) [Methyl Dihydro Jasmonate]

- Solubility in H2O ([2]; first liquid oily compounds): Negligible (lower than 0.1) g/L
SMILES: CCCCCCCCCCCC(=O)N(C)CC(=O)OC(C)C [Isoropyl N-Lauroyl Sarcosinate]
